Results taken from US20240246984A1, “HETEROCYCLIC JAK INHIBITOR” (BEIJING INNOCARE PHARMA TECH CO., LTD., priority 2020, published 2024).

Experiments:
[1] = tested on: IL-12-induced IFN-γ secretion in NK92 cells; experiment: Inhibition of IL-12-induced IFN-γ secretion in NK92 cells (ELISA); type: cell-based; conditions: Homo sapiens, IL-12 stimulation, 24 hours, read-out: IC50 (NK92IL12/IFN-γ)
Procedure: The effect of the compounds of the present invention on IFN-γ secretion in IL-12-induced NK92 cells was evaluated by an enzyme-linked immunosorbent assay (ELISA).
The assay principle was generally described below: IL-12R was mainly expressed in activated T-cells, NK cells (NK92 was an NK cell line), DC cells, and B-cells. When binding to IL-12, it activated the JAK2/TYK2 signal transduction pathway within NK cells and activated T lymphocytes, thereby inducing secretion of IFN-γ.
The compound was dissolved to 2.5 mM in DMSO, followed by a serial 4-fold dilution with DMSO to a minimum concentration of 0.31 μM. Each concentration was further diluted 50-fold with an FBS-free MEMα medium (Thermofisher. 12561-056).
NK92 cells (Nanjing Cobioer, CBP60980) were cultured in a complete MEMα medium containing 12.5% FBS (Ausbian, VS500T), 12.5% horse serum (Thermofisher, 16050-122), 0.02 mM folic acid (Sigma, F8758), 0.2 mM inositol (Sigma, 17850), 0.55 mM β-mercaptoethanol (Thermofish, 21985-023), 200 U/mL IL-2 (R&D Systems, 202-1L), and 100 U/mL penicillin-streptomycin mixed liquor (ThermoFisher, 15140122). When covering 80-90% of the culture container surface, the cells were dispersed and plated on a 96-well plate (ThermoFisher, 167425) with 100,000 cells per well (80 μL of the complete MEMα medium without IL-2). The 96-well plate was then incubated overnight in a 37° C., 5% CO2 incubator.
After overnight incubation, 10 μL of the compound and 10 μL of 50 ng/ml IL-12 (R &D Systems, 219-1L) were added to each well and mixed gently, and the 96-well plate was incubated in the 37° C., 5% CO2 incubator for additional 24 hours. The plate was centrifuged at 800 rpm for 10 minutes at room temperature and 50 μL of the supernatant from each well was transferred to another 96-well plate (Sigma, CLS3695) coated with anti-IFN-γ antibody. The amount of IFN-γ secretion was detected following the instruction from the Human IFN-γ DuoSet ELISA assay kit (R & D Systems, DY285B). In this assay, the group in which IL-12 and the test compound were replaced with the MEMα medium was the non-stimulated control group (100% inhibition), and the group with IL-12 and 0.2% DMSO was the stimulated control group (0% inhibition). The compound inhibition curve was plotted using XLfit software and the IC50 of its inhibition was calculated.

[2] = target: human recombinant JAK2 protein (Homo sapiens, UniProt O60674); experiment: JAK2 activity inhibition assay (HTRF kinase detection); type: biochemical; conditions: 2.5 μM ATP substrate solution
Procedure: The effect of the compounds of the present invention on the activity of JAK2 was assessed by using an in vitro kinase detection assay.
The enzymatic activity of JAK2 was assessed by detecting the substrate phosphorylation level in a kinase reaction with a homogeneous time-resolved fluorescence (HTRF) kinase detection kit (Cisbio, 62TK0PEC). A reaction buffer contained an enzyme buffer (1×), 5 mM MgCl2, 1 mM DTT and 0.01% Brij35 from the kit; a human recombinant JAK2 protein (Carna Biosciences, 08-045) was diluted to a kinase reaction solution of 0.15 ng/μL with the reaction buffer; a substrate reaction solution contained 2.5 μM ATP and a biotin-labeled tyrosine kinase substrate diluted to 0.25 μM with the reaction buffer; a detection buffer contained 0.1 ng/μL Eu^3+ labeled cage antibody (Cisbio, 61T66KLB) and 12.5 nM streptavidin-labeled XL665 (Cisbio, 610SAXLB) in the reaction buffer; the compound was dissolved to 10 μM in DMSO, followed by a serial 4-fold dilution with DMSO to a minimum concentration of 0.061 nM. Each concentration was further diluted 40-fold with the reaction buffer. To a 384-well assay plate (Corning, 3674) were added 4 μL of the compound solutions having a series of concentrations and 2 μL of JAK2 kinase reaction solutions. After being mixed evenly, the mixtures were incubated at room temperature for 15 minutes, and then 4 μL of the substrate reaction solutions were added. The reaction mixtures were incubated at room temperature for 30 minutes. Then the reaction mixtures were added with 10 μL of detection solutions, mixed evenly, and allowed to stand at room temperature for 30 minutes. An Envision plate reader (Perkin Elmer) was then used to measure the progress of the reaction at wavelengths of 620 nm and 665 nm. The signal value (absorbance at 665 nm/absorbance at 620 nm) was positively correlated with the degree of substrate phosphorylation, therefore the kinase activity of JAK2 was detected. In this assay, the group without JAK2 kinase protein was the 100% inhibition group, and the group with JAK2 kinase protein but without the test compound was the 0% inhibition group. The compound inhibition curve was plotted using XLfit software and the IC50 of its inhibition was calculated.

[3] = target: human recombinant TYK2 protein (Homo sapiens, UniProt P29597); experiment: TYK2 activity inhibition assay (HTRF kinase detection); type: biochemical; conditions: 11.25 μM ATP substrate solution
Procedure: The effect of the compounds of the present invention on the activity of TYK2 was assessed by using an in vitro kinase detection assay.
The enzymatic activity of TYK2 was assessed by detecting the substrate phosphorylation level in a kinase reaction with a homogeneous time-resolved fluorescence (HTRF) kinase detection kit (Cisbio, 62TK0PEC). A reaction buffer contained an enzyme buffer (1×), 5 mM MgCl2, 1 mM DTT and 0.01% Brij35 from the kit; a human recombinant TYK2 protein (Carna Biosciences, 08-147) was diluted to a kinase reaction solution of 0.25 ng/μL with the reaction buffer; a substrate reaction solution contained 11.25 μM ATP and a biotin-labeled tyrosine kinase substrate diluted to 0.5 μM with the reaction buffer; a detection buffer contained 0.1 ng/μL Eu^3+ labeled cage antibody (Cisbio, 61T66KLB) and 25 nM streptavidin-labeled XL665 (Cisbio, 610SAXLB) in the reaction buffer; the compound was dissolved to 10 μM in DMSO, followed by a serial 4-fold dilution with DMSO to a minimum concentration of 0.061 nM. Each concentration was further diluted 40-fold with the reaction buffer. To a 384-well assay plate (Corning, 3674) were added 4 μL of the compound solutions having a series of concentrations and 2 μL of kinase reaction solutions. After being mixed evenly, the mixtures were incubated at room temperature for 15 minutes, and then 4 μL of the substrate reaction solutions were added. The reaction mixtures were incubated at room temperature for 40 minutes. Then the reaction mixtures were added with 10 μL of detection solutions, mixed evenly, and allowed to stand at room temperature for 30 minutes. An Envision plate reader (Perkin Elmer) was then used to measure the progress of the reaction at wavelengths of 620 nm and 665 nm. The signal value (absorbance at 665 nm/absorbance at 620 nm) was positively correlated with the degree of substrate phosphorylation, therefore the kinase activity of TYK2 was detected. In this assay, the group without TYK2 kinase protein was the 100% inhibition group, and the group with TYK2 kinase protein but without the test compound was the 0% inhibition group. The compound inhibition curve was plotted using XLfit software and the IC50 of its inhibition was calculated.

IC50 [1]	IC50 [2]	IC50 [3]	Structure (SMILES)
66 nM	0.4 nM	0.1 nM	O=C(c1ccc(Nc2nc(-c3c(F)cccc3Cl)n3cc[nH]c(=O)c23)cc1)N1CCOCC1 [Compound 3, 3-(2-chloro-6-fluorophenyl)-1-((4-(morpholine-4-carbonyl)phenyl)amino)imidazo[1,5-a]pyrazin-8(7H)-one]
198 nM	5.3 nM	0.3 nM	O=c1[nH]ccn2c(-c3c(F)cccc3F)nc(Nc3ccc(N4CCOCC4)cc3)c12 [Compound 6, 3-(2,6-difluorophenyl)-1-((4-morpholinophenyl)amino)imidazo[1,5-a]pyrazin-8(7H)-one]
520 nM	0.3 nM	0.1 nM	CC(C)(C(=O)N1CCOCC1)c1ccc(Nc2nc(-c3c(F)cccc3F)n3cc[nH]c(=O)c23)cc1 [Compound 17, 3-(2,6-difluorophenyl)-1-((4-(2-methyl-1-morpholino-1-oxopropan-2-yl)phenyl)amino)imidazo[1,5-a]pyrazin-8(7H)-one]
110 nM	5.5 nM	0.9 nM	CS(=O)(=O)c1ccc(Nc2nc(-c3c(F)cccc3F)n3c2C(=O)NCC3)cc1 [Compound 12, 3-(2,6-difluorophenyl)-1-((4-(methylsulfonyl)phenyl)amino)-6,7-dihydroimidazo[1,5-a]pyrazin-8(5H)-one]
242 nM	1.4 nM	4 nM	CS(=O)(=O)c1ccc(Nc2nc(-c3c(F)cccc3F)n3cc[nH]c(=O)c23)cc1 [Compound 11, 3-(2,6-difluorophenyl)-1-((4-(methylsulfonyl)phenyl)amino)imidazo[1,5-a]pyrazin-8(7H)-one]
66 nM	0.4 nM	0.1 nM	CC(C)(C(N)=O)c1ccc(Nc2nc(-c3c(F)cccc3Cl)n3cc[nH]c(=O)c23)cc1 [Compound 33, 2-(4-((3-(2-chloro-6-fluorophenyl)-8-oxo-7,8-dihydroimidazo[1,5-a]pyrazin-1-yl)amino)phenyl)-2-methylpropanamide]
406 nM	2.8 nM	0.4 nM	CC(C)(C(=O)O)c1ccc(Nc2nc(-c3c(F)cccc3F)n3cc[nH]c(=O)c23)cc1 [Compound 40, 2-(4-((3-(2,6-difluorophenyl)-8-oxo-7,8-dihydroimidazo[1,5-a]pyrazin-1-yl)amino)phenyl)-2-methylpropanoic acid]
122 nM	4.4 nM	0.4 nM	O=C1NCCn2c(-c3c(F)cccc3F)nc(Nc3ccc(N4CCOCC4)cc3)c21 [Compound 10, 3-(2,6-difluorophenyl)-1-((4-morpholinophenyl)amino)-6,7-dihydroimidazo[1,5-a]pyrazin-8(5H)-one]
1440 nM	4.9 nM	2 nM	O=C1NCCn2c(-c3c(F)cccc3F)nc(Nc3ccc(CC(=O)N4CCOCC4)cc3)c21 [Compound 16, 3-(2,6-difluorophenyl)-1-((4-(2-morpholino-2-oxoethyl)phenyl)amino)-6,7-dihydroimidazo[1,5-a]pyrazin-8(5H)-one]
2850 nM	0.5 nM	0.4 nM	CC(C)(C(=O)N1CCNCC1)c1ccc(Nc2nc(-c3c(F)cccc3Cl)n3cc[nH]c(=O)c23)cc1 [Compound 38, 3-(2-chloro-6-fluorophenyl)-1-((4-(2-methyl-1-oxo-1-(piperazin-1-yl)propan-2-yl)phenyl)amino)imidazo[1,5-a]pyrazin-8(7H)-one]
113 nM	0.5 nM	0.3 nM	O=C(Cc1ccc(Nc2nc(-c3c(F)cccc3F)n3cc[nH]c(=O)c23)cc1)N1CCOCC1 [Compound 14, 3-(2,6-difluorophenyl)-1-((4-(2-morpholino-2-oxoethyl)phenyl)amino)imidazo[1,5-a]pyrazin-8(7H)-one]
1410 nM	2.2 nM	0.3 nM	CC(C)(C(=O)N1CCOCC1)c1ccc(Nc2nc(-c3c(F)cccc3F)n3c2C(=O)NCC3)cc1 [Compound 18, 3-(2,6-difluorophenyl)-1-((4-(2-methyl-1-morpholino-1-oxopropan-2-yl)phenyl)amino)-6,7-dihydroimidazo[1,5-a]pyrazin-8(5H)-one]
268 nM	0.6 nM	0.2 nM	CN1CCN(C(=O)C(C)(C)c2ccc(Nc3nc(-c4c(F)cccc4Cl)n4cc[nH]c(=O)c34)cc2)CC1 [Compound 37, 3-(2-chloro-6-fluorophenyl)-1-((4-(2-methyl-1-(4-methylpiperazin-1-yl)-1-oxopropan-2-yl)phenyl)amino)imidazo[1,5-a]pyrazin-8(7H)-one]
1060 nM	2.2 nM	0.3 nM	CC(C)(C(=O)N1CCC1)c1ccc(Nc2nc(-c3c(F)cccc3F)n3c2C(=O)NCC3)cc1 [Compound 13, 1-((4-(1-(azetidin-1-yl)-2-methyl-1-oxopropan-2-yl)phenyl)amino)-3-(2,6-difluorophenyl)-6,7-dihydroimidazo[1,5-a]pyrazin-8(5H)-one]
95 nM			O=C1NCCn2c(-c3c(F)cccc3F)nc(Nc3ccc(C(=O)N4CCOCC4)cc3)c21 [Compound 2, 3-(2,6-difluorophenyl)-1-((4-(morpholine-4-carbonyl)phenyl)amino)-6,7-dihydroimidazo[1,5-a]pyrazin-8(5H)-one]
